Experimental findings from patent US20220096515A1, “Methods and Formulations for Preventing Neurological or Psychiatric Disorders” (Huntington Medical Research Institutes, priority 2020, published 2022) are described below.

SMILES strings stand for the structures.

Data set [1] has as its system periventricular endothelial cells isolated from E15 wildtype (CD1) forebrain. As to the kind of experiment: Endothelial cell proliferation in culture (confluency, BrdU labeling index). In kind it is cell-based, mouse. The procedure:
(§1) Primary culture of endothelial cells and endothelial cell staining: Embryonic brains were dissected under a stereo-microscope, after the NAD^+ treatment paradigm and the telencephalon was removed. Pial membranes were peeled off. Telencephalon without pial membranes from the periventricular region was pooled. Purity of endothelial cell cultures was established with endothelial cell markers and determined to be one hundred percent. Isolation and culture of endothelial cells were performed according to published methodology. Periventricular endothelial cells were prepared from CD1 (wild type), saline-treated Gabrb3^fl/fl, saline-treated Gabrb3^ECKO, and NAD^+-treated Gabrb3^ECKO embryos. Endothelial cells were labeled with anti-biotinylated isolectinB4 (1:100, Sigma), anti-GABA (1:400, Sigma), anti-DAXX (1:100, Santa Cruz Biotechnology) and anti-P2X4 (1:100, Abclonal) followed by secondary detection with AlexaFluor conjugates (Invitrogen). DAPI (Invitrogen) was used to label nuclei. Images were taken on an FSX100 microscope (Olympus). 1 million cells were examined for each immunohistochemistry condition.
Endothelial cell proliferation and long-distance cell migration assay: To test for cell proliferation, CD1 periventricular endothelial cells (1 million cells per experiment) were incubated in the presence of the mitotic marker 5-bromo-2′-deoxyuridine (0.05% BrdU) with or without muscimol, for 1 hour to examine the impact on proliferation of these cells and processed for BrdU immunohistochemistry.
In one experiment, periventricular endothelial cells were isolated from E15 wildtype (CD1) forebrain and tested the effect of NAD^+ addition in vitro. Exogenous addition of 100 μM NAD^+ was able to initiate significant endothelial cell proliferation within 2 days of culture and a 35 mm culture dish was confluent within 4-6 days (FIGS. 2A-2D). This was an interesting observation, since untreated periventricular endothelial cells take approximately 12 days to reach confluency in 35mm dishes, in our well-established culture conditions. […] Vital elements of angiogenesis include effective endothelial cell proliferation, migration, sprouting, alignment, tube formation and branching. […] In some areas of the dish, the NAD^+-treated endothelial cells seemed to align and fold into tubular shapes (FIG. 2H), aspects that we have not seen in wild type or untreated periventricular endothelial cells in normal culture conditions.
Effects of NAD^+ addition to periventricular endothelial cells isolated from E15 wildtype (CD1) forebrain was more robust than GABA. (FIGS. 17A-17F) Phase contrast images of periventricular endothelial cells cultured from E15 CD1 forebrain at different time points in untreated conditions (FIGS. 17A-17B) or after plating with NAD^+ addition (100 μM; FIGS. 17C-17D) or GABA addition (5 μM; FIGS. 17E-17F). […] (FIG. 17G) All groups of periventricular endothelial cells were exposed to BrdU (1 mM BrdU per ml medium) for 1 hour followed by Isolectin B4/BrdU double labeling. Quantification of BrdU labeling indices; Data represents mean±SD (n=8, *P<0.05; Student's t-test).

Data set [2] relates to Gabrb3^fl/fl mice. As to the kind of experiment: Nesting and grooming behavior of NAD+ treated Gabrb3^fl/fl mice. Format: in vivo, mouse. The note with it: NAD+ vs saline treated Gabrb3^fl/fl mice. How it is done:
Certain embodiments treat an individual at a dosage of approximately 10 mg/kg—for example, for a 60-70 kg human, a dosage would be approximately 600-700 mg. Some embodiments treat at a dosage higher than 10 mg/kg, such as up to 40 mg/kg. In many embodiments excess NAD+ may be removed from the body without deleterious effects. FIGS. 1D-1F illustrate exemplary data showing no deleterious effects from treating wildtype mice with NAD+. […] As excess NAD+ may be removed without significant effect to a treated individual, some embodiments treat a person prophylactically.
(§2) Behavioral Experiments: Mice were housed in our animal facility with a 12-hour light cycle with ad libitum access to food and water. Offspring stayed with their mothers until weaning at PND 21 after which males and females were separated. Before all behavioral testing, mice were acclimated to the testing room for 1 hour. Behavioral assays were performed according to established protocols referenced here: self-grooming, light-dark box, tail suspension test, Y-maze, open field locomotion activity, three chamber social interaction test and nest building with nestlets and with shredded paper. Both males and females were used for all behavioral assays. Experimenters scoring behaviors were blinded to the genotypes and treatment. Sample sizes for each assay are noted in figure legends.

Data set [3] can be described thus: Litter size and pup growth after prenatal treatment. In kind it is in vivo, mouse. Conditions: prenatal NAD^+ treatment.
Data set [4] concerns Gabrb3^ECKO endothelial cells. The data set can be described thus: GABA secretion by ELISA after prenatal treatment. Format: in vivo, mouse. How it is done:
ELISA: Periventricular endothelial cells were prepared after the NAD^+ treatment paradigm, or after the treatment with purinergic receptor agonists/antagonists, and seeded in 12 well culture plates at 0.1×10^6 cells/well. Supernatants from endothelial cell cultures were collected after 96 hours and stored at −80° C. for ELISA. GABA concentrations were quantitatively determined by competitive ELISA according to the manufacturers' protocol (GABA Research ELISA kits, Labor Diagnostica Nord, Germany), and absorbance was measured using a multiplate microplate fluorescence reader (Molecular Devices, CA) at 450 nm.
Endothelial cell derived GABA plays dual roles in the embryonic forebrain. It not only activates a positive feedback cycle in endothelial cells that stimulates angiogenesis, but also is an essential chemo-attractive and guidance cue for promotion of long-distance migration of GABAergic interneurons. […] Since, Gad1 and Gad2 were rescued in Gabrb3^ECKO endothelial cells by the prenatal NAD^+ treatment (FIGS. 10H-10I), it was tested whether GABA expression was rescued in Gabrb3^ECKO endothelial cells (FIGS. 11A-11C). Control endothelial cells typically form tight networks or clusters under normal culture conditions. […] Next, we investigated the secretion of GABA by ELISA in the three groups. […]

Data set [5] concerns periventricular endothelial cells isolated from E15 wildtype (CD1) forebrain. As to the kind of experiment: Tube formation under normal culture conditions (no Matrigel). The note with it: absence of Matrigel. In kind it is cell-based, mouse. How it is done: as §1
In one experiment, periventricular endothelial cells were isolated from E15 wildtype (CD1) forebrain and tested the effect of NAD^+ addition in vitro. […]

Data set [6] concerns Gabrb3^ECKO mice. The data set can be described thus: Three-chamber social communication test. Format: in vivo, mouse. The procedure:
as §2
This is indicative of rescue of social motivation, memory and novelty exploration in NAD^+-treated Gabrb3^ECKO mice (FIG. 14L).

For `NC(=O)c1ccc[n+]([C@@H]2O[C@H](COP(=O)([O-])OP(=O)(O)OC[C@H]3O[C@@H](n4cnc5c(N)ncnc54)[C@H](O)[C@@H]3O)[C@@H](O)[C@H]2O)c1` [NAD^+], the “endothelial cell proliferation (phase contrast)” value in data set [1] (100 μM) is recorded as “Robust proliferation”. In addition, the “time to initiate significant endothelial cell proliferation” value in data set [1] (100 μM NAD^+, days of culture) is no more than 2 days. For the same molecule, in data set [1] (100 μM NAD^+, untreated cells approximately 12 days), the “time until 35 mm culture dish was confluent” value fell in the range of 4 to 6 days. Further, the “endothelial cell BrdU labeling index” value in data set [1] (NAD^+ addition vs untreated) is on record as “significantly increased”. Also, the grooming behavior entry in data set [2] is on record as “no significant change in grooming behavior”. Moreover, the nesting behavior entry in data set [2] (untorn nestlet and shredded paper) is listed as “no significant difference in nesting behavior”. In data set [3], the growth of pups entry was “grew normally to adulthood” and the litter size entry was “did not have any effect on litter size”. Moreover, the “GABA secretion (ELISA)” value in data set [4] is listed as “rescued”. Further, in data set [5], the tube formation entry is given as “started showing tube formation properties under normal culture conditions”. For the same molecule, in data set [6] (sociability phase), the “sociability: stranger mouse vs inanimate object” value is given as “interacted with the stranger mouse for a significantly longer duration than with the inanimate object”. For the same molecule, the “social novelty: stranger 2 vs familiar stranger 1” value in data set [6] (social novelty phase) is “marked preference for stranger 2”.
